{"source": "patent US20250325531A1", "about": "“TREATMENT OF SYSTOLIC DYSFUNCTION” (MyoKardia, Inc., priority 2024, published 2025)", "experiment": "Pharmacokinetics of multiple ascending doses (MAD Cohorts A-D) in patients with stable HFrEF", "format": "in vivo, human", "settings": "for Accumulation Index: estimated based λz and Tau", "text": "This was a randomized, parallel-group, DB, placebo-controlled, adaptive design, sequential ascending (oral) multiple-dose study in stable patients with heart failure. Four MAD Cohorts (A, B, C, D) were enrolled (FIG. 5B). An SRC reviewed results from each cohort and determined the dose and confirmed initial sample size for the subsequent cohort. Additionally, the first 3 patients in each cohort had LVEF ≥25%; the SRC reviewed preliminary safety data from these patients and decided whether to open cohort enrollment to patients with LVEF <25%.\nAfter Screening and qualification, patients were confined to a clinical testing facility from Day 1 (Check-in) to Day 11. Each patient initially received placebo BID for 2 days (Days 1 and 2) in single-blinded manner (“run-in” during acclimatization to confinement in the Clinical Testing Unit) prior to receiving the randomized DB study drug treatment on Day 3. All patients then received either placebo or active Compound I for 7 days (Days 3 through 9), with a follow-up period with patients discharged from the unit on Day 11. A final follow-up clinic visit was conducted on Day 16. More than one patient could be dosed in a cohort at the same time or during the same week depending on administrative issues, i.e., capacity and scheduling.\nPatients were dosed twice daily (every 12 hours). Doses could occur ±2 hours from scheduled dosing times as long as doses were separated by at least 10 hours and by no more than 14 hours. The exception to the twice daily dosing was on Day 9 (last dose of randomized DB study drug treatment). On Day 9, a single morning dose was administered.\nDuring the study, multiple evaluations were performed that included: serial TTE assessments (11-14 TTEs per patient on Days 1, 2, 3, 4, 7, 9, 10 and 11); PK sampling (PK sample collected concomitantly with every post-randomization echocardiogram); ECGs (on Days 2, 3, 4, 7, 9, 10, 11 and 16); troponin (collected concomitantly with every post-randomization ECG); and safety laboratory assessments. Confined patients underwent continuous telemetry. Holter monitoring was performed in all patients at baseline (Days 1-2) and at the end of double-blind treatment (Days 7-9). Vital signs were collected daily.\nStudy medication consisted of Compound I 5 mg tablets, 25 mg tablets, 100 mg tablets, or matching placebo tablets. In Part 1 (SAD), Compound I or placebo was administered after an overnight fast (at least 6 hours), while in Part 2 (MAD), Compound I was administered after a 2 hour fast (Cohort A) or with food (Cohorts B, C, and D). The dose was ingested with a minimum of 240 mL of water, but more water was ingested as needed. The entire dose was administered over a period of up to 15 minutes. The time of dose used to determine future assessments was the time the last tablet was taken. In the cohorts for Part 2 (MAD), a BID regimen was used.\nIn Part 2 (MAD), Cohort A patients fasted for 2 hours before and 2 hours after dosing. For example, if morning dosing occurred at 8 AM, patients could have a snack at 6 AM and a full breakfast at 10 AM. If afternoon dosing occurred at 8 PM, patients could have dinner at 6 PM and a snack at 10 PM. […] Cohort B, C, and D patients ingested food with each dose.\nA total of 40 subjects across 4 cohorts received 7 days of treatment with placebo or Compound I at doses of 50 mg (with food), 75 mg (1 cohort with food, 1 cohort with […]), or 100 mg (with food), BID (see FIG. 5B and Table 14).", "key": {"[1]": {"settings": "MAD Cohort A (75 mg BID, 4 h fasting), individual subjects"}, "[2]": {"settings": "MAD Cohort B (50 mg BID, with food), Mean"}, "[3]": {"settings": "MAD Cohort C (75 mg BID, with food), individual subjects"}}, "note": "“And” between values parts separate entries of the source, which are not always exact repeats. Equal entries are not always repeated."}
{"compound": "Cn1cc(S(=O)(=O)[C@@](C)(F)C2CCN(C(=O)Nc3ccon3)CC2)c(C(F)F)n1", "note": "[Compound I, (R)-4-(1-((3-(difluoromethyl)-1-methyl-1H-pyrazol-4-yl)sulfonyl)-1-fluoroethyl)-N-(isoxazol-3-yl) piperidine-1-carboxamide]", "values": [{"measurement": "Steady-state (Day 9) post-dose maximum concentration", "setting": "Cohort A + C (n = 14), 75 mg BID", "value": "3862 (27.7%) ng/mL"}, {"measurement": "Steady-state (Day 9) post-dose maximum concentration", "setting": "Cohort B (n = 8), 50 mg BID", "value": "2735 (17.5%) ng/mL"}, {"measurement": "Steady-state (Day 9) post-dose maximum concentration", "setting": "Cohort D (n = 6), 100 mg BID", "value": "5560 (22.8%) ng/mL"}, {"measurement": "Accumulation Index", "setting": "MAD Cohort A (75 mg BID, 4 h fasting), Mean", "value": 3.11}, {"measurement": "AUCtau, Day 1", "setting": "[1]", "value": 10610, "unit": "ng·h/mL"}, {"measurement": "Accumulation Index", "setting": "[1]", "value": "3.82 and 3.89 and 2.79* and 2.21 and 3.00 and 2.61"}, {"measurement": "Cmax, SS", "setting": "[2]", "value": 2771, "unit": "ng/mL"}, {"measurement": "Accumulation Index", "setting": "[2]", "value": 3.55}, {"measurement": "Accumulation Index", "setting": "MAD Cohort B (50 mg BID, with food), individual subjects", "value": "3.63 and 5.03 and 4.46 and 2.93 and 3.51 and 2.42 and 3.20 (2×) and 4.23*"}, {"measurement": "Accumulation Index", "setting": "MAD Cohort C (75 mg BID, with food), Mean", "value": 3.18}, {"measurement": "AUCtau, Day 1", "setting": "[3]", "value": 10560, "unit": "ng·h/mL"}, {"measurement": "Accumulation Index", "setting": "[3]", "value": "2.18 and 2.39 and 2.99 and 3.31 and 5.51 and 2.43 and 2.20 and 4.17 and 3.42"}, {"measurement": "Accumulation Index", "setting": "MAD Cohort D (100 mg BID, with food), Mean", "value": 3.30}, {"measurement": "Accumulation Index", "setting": "MAD Cohort D (100 mg BID, with food), individual subjects", "value": "3.46 and 3.77 and 3.06 and 3.31 and 2.61 and 3.62"}]}
